According to US10399988B2, “4-aminopyrazolo[3,4-d]pyrimidinylazabicyclo derivatives and pharmaceutical composition comprising the same” (Daewoong Pharmaceutical Co., Ltd., priority 2016, dated 2019):
Counter-ions that a name gives are not always drawn.

Molecular target: BTK (Homo sapiens, UniProt Q06187)
Test: Inhibitory activity against BTK (ADP-Glo + BTK Kinase enzyme system kit)

BTK, sequence (Q06187 whole entry): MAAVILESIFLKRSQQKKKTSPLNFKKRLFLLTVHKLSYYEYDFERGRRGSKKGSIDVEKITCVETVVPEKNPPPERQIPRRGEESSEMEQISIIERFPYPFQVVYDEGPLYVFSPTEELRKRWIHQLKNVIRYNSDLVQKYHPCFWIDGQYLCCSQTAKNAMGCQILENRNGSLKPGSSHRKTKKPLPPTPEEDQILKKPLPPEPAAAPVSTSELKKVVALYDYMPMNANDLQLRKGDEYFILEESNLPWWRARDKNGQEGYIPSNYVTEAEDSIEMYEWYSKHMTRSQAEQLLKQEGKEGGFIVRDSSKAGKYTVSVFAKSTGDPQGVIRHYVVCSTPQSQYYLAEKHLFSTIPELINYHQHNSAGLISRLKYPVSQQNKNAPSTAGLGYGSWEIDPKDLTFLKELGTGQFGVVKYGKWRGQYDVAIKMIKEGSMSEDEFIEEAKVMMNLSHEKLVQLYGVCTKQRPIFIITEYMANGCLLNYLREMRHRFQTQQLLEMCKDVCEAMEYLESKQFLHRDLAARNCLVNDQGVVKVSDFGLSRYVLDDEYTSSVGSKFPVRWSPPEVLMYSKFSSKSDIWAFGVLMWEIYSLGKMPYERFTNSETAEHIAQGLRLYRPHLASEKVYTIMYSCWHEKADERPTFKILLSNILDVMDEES

Row | IC50 | SMILES
1 | 27.6 nM | CC#CC(=O)N1CC2CC1C(n1nc(-c3ccc(Oc4ccccc4)cc3)c3c(N)ncnc31)C2 (stereo not drawn) [Ex. 5, 1-(6-(4-amino-3-(4-phenoxyphenyl)-1H-pyrazolo[3,4-d]pyrimidin-1-yl)-2-azabicyclo[2.2.1]heptan-2-yl)but-2-yn-1-one]
2 | 2.8 nM | C#CC(=O)N1CC2CC1CC2n1nc(-c2ccc(Oc3ccccc3)cc2)c2c(N)ncnc21 (stereo not drawn) [Ex. 11, 1-(5-(4-amino-3-(4-phenoxyphenyl)-1H-pyrazolo[3,4-d]pyrimidin-1-yl)-2-azabicyclo[2.2.1]heptan-2-yl)prop-2-yn-1-one]
3 | 29.6 nM | C=CC(=O)N1CC2CC1C(n1nc(-c3ccc(COC)cc3)c3c(N)ncnc31)C2 (stereo not drawn) [Ex. 27, 1-(6-(4-amino-3-(4-(methoxymethyl)phenyl)-1H-pyrazolo[3,4-d]pyrimidin-1-yl)-2-azabicyclo[2.2.1]heptan-2-yl)prop-2-en-1-one]
4 | 295 nM | C=CC(=O)N1CC2CC1C(n1nc(-c3cccc(C(=O)Nc4ccc(C(F)(F)F)nc4)c3)c3c(N)ncnc31)C2 (stereo not drawn) [Ex. 26, 3-(1-(2-acryloyl-2-azabicyclo[2.2.1]heptan-6-yl)-4-amino-1H-pyrazolo[3,4-d]pyrimidin-3-yl)-N-(6-(trifluoromethyl)pyridin-3-yl)benzamide]
5 | 139 nM | C=CC(=O)N1CC2CC1C(n1nc(-c3cccc(C(=O)Nc4ccc(C(C)C)cc4)c3)c3c(N)ncnc31)C2 (stereo not drawn) [Ex. 8, 3-(1-(2-acryloyl-2-azabicyclo[2.2.1]heptan-6-yl)-4-amino-1H-pyrazolo[3,4-d]pyrimidin-3-yl)-N-(4-isopropylphenyl)benzamide]
6 | 28.6 nM | C=CC(=O)N1CC2CC1C(n1nc(-c3ccc(NC(=O)c4cccc(N(C)C)c4)cc3)c3c(N)ncnc31)C2 (stereo not drawn) [Ex. 50, N-(4-(1-(2-acryloyl-2-azabicyclo[2.2.1]heptan-6-yl)-4-amino-1H-pyrazolo[3,4-d]pyrimidin-3-yl)phenyl)-3-(dimethylamino)benzamide]
7 | 136 nM | CN1CCN(C/C=C/C(=O)N2CC3CC2C(n2nc(-c4ccc(C(=O)Nc5ccccn5)cc4)c4c(N)ncnc42)C3)CC1 (stereo not drawn) [Ex. 61, (E)-4-(4-amino-1-(2-(4-(4-methylpiperazin-1-yl)but-2-enoyl)-2-azabicyclo[2.2.1]heptan-6-yl)-1H-pyrazolo[3,4-d]pyrimidin-3-yl)-N-(pyridin-2-yl)benzamide]
8 | 16.9 nM | C=CC(=O)N1CC2CC1C(n1nc(-c3ccc(C(=O)Nc4cc(C(F)(F)F)ccn4)cc3)c3c(N)ncnc31)C2 (stereo not drawn) [Ex. 29, 4-(1-(2-acryloyl-2-azabicyclo[2.2.1]heptan-6-yl)-4-amino-1H-pyrazolo[3,4-d]pyrimidin-3-yl)-N-(4-(trifluoromethyl)pyridin-2-yl)benzamide]
9 | 6.4 nM | C=CC(=O)N1C[C@@H]2C[C@H]1[C@@H](n1nc(-c3ccc(C(=O)Nc4ncccc4C)cc3)c3c(N)ncnc31)C2 [Ex. 77, 4-(1-((1S,4R,6S)-2-acryloyl-2-azabicyclo[2.2.1]heptan-6-yl)-4-amino-1H-pyrazolo[3,4-d]pyrimidin-3-yl)-N-(3-methylpyridin-2-yl)benzamide]
10 | 88 nM | C=CC(=O)N1CC2CC1C(n1nc(-c3cccc(C(=O)Nc4ccc(C(C)C)c(C)c4)c3)c3c(N)ncnc31)C2 (stereo not drawn) [Ex. 10, 3-(1-(2-acryloyl-2-azabicyclo[2.2.1]heptan-6-yl)-4-amino-1H-pyrazolo[3,4-d]pyrimidin-3-yl)-N-(4-isopropyl-3-methylphenyl)benzamide]
11 | 77.1 nM | C=CC(=O)N1C[C@@H]2C[C@H]1[C@@H](n1nc(-c3ccc(C(=O)NC)cc3F)c3c(N)ncnc31)C2 [Ex. 79, 4-(1-((1S,4R,6S)-2-acryloyl-2-azabicyclo[2.2.1]heptan-6-yl)-4-amino-1H-pyrazolo[3,4-d]pyrimidin-3-yl)-3-fluoro-N-methylbenzamide]
12 | 5.1 nM | C=CC(=O)N1CC2CC1C(n1nc(-c3ccc(NC(=O)c4ccccc4)cc3)c3c(N)ncnc31)C2 (stereo not drawn) [Ex. 37, N-(4-(1-(2-acryloyl-2-azabicyclo[2.2.1]heptan-6-yl)-4-amino-1H-pyrazolo[3,4-d]pyrimidin-3-yl)phenyl)benzamide]
13 | 10.9 nM | C=CC(=O)N1CC2CC1C(n1nc(-c3ccc(C(=O)Nc4cccc(C(C)C)c4)cc3)c3c(N)ncnc31)C2 (stereo not drawn) [Ex. 47, 4-(1-(2-acryloyl-2-azabicyclo[2.2.1]heptan-6-yl)-4-amino-1H-pyrazolo[3,4-d]pyrimidin-3-yl)-N-(3-isopropylphenyl)benzamide]
14 | 15.2 nM | C=CC(=O)N1CC2CC1C(n1nc(-c3ccc(NC(=O)Nc4ccccc4)cc3)c3c(N)ncnc31)C2 (stereo not drawn) [Ex. 39, 1-(4-(1-(2-acryloyl-2-azabicyclo[2.2.1]heptan-6-yl)-4-amino-1H-pyrazolo[3,4-d]pyrimidin-3-yl)phenyl)-3-phenylurea]
15 | > 100 nM | C=C(C)C(=O)N1C[C@@H]2C[C@@H]1[C@@H](n1nc(-c3ccc(C(=O)Nc4ccccn4)cc3)c3c(N)ncnc31)C2 [Ex. 84, 4-(4-amino-1-((1R,4R,6S)-2-methacryloyl-2-azabicyclo[2.2.1]heptan-6-yl)-1H-pyrazolo[3,4-d]pyrimidin-3-yl)-N-(pyridin-2-yl)benzamide]
16 | 5.5 nM | C=CC(=O)N1CC2CC1C(n1nc(-c3ccc(Oc4cccc(C)c4)cc3)c3c(N)ncnc31)C2 (stereo not drawn) [Ex. 40, 1-(6-(4-amino-3-(4-(m-tolyloxy)phenyl)-1H-pyrazolo[3,4-d]pyrimidin-1-yl)-2-azabicyclo[2.2.1]heptan-2-yl)prop-2-en-1-one]
17 | 8.8 nM | C=CC(=O)N1CC2CC1C(n1nc(-c3ccc(NC(=O)c4ccccc4N(C)C)cc3)c3c(N)ncnc31)C2 (stereo not drawn) [Ex. 57, N-(4-(1-(2-acryloyl-2-azabicyclo[2.2.1]heptan-6-yl)-4-amino-1H-pyrazolo[3,4-d]pyrimidin-3-yl)phenyl)-2-(dimethylamino)benzamide]
18 | 107 nM | C=CC(=O)N1CC2CC1C(n1nc(-c3ccc(Oc4cccc(N)c4)cc3)c3c(N)ncnc31)C2 (stereo not drawn) [Ex. 51, 1-(6-(4-amino-3-(4-(3-aminophenoxy)phenyl)-1H-pyrazolo[3,4-d]pyrimidin-1-yl)-2-azabicyclo[2.2.1]heptan-2-yl)prop-2-en-1-one hydrochloride]
19 | 143 nM | C=CC(=O)N1CC2CC1C(n1nc(-c3ccc(C(=O)Nc4cnn(C)c4)cc3)c3c(N)ncnc31)C2 (stereo not drawn) [Ex. 56, 4-(1-(2-acryloyl-2-azabicyclo[2.2.1]heptan-6-yl)-4-amino-1H-pyrazolo[3,4-d]pyrimidin-3-yl)-N-(1-methyl-1H-pyrazol-4-yl)benzamide]
20 | 72 nM | C=CC(=O)N1CC2CC1C(n1nc(-c3ccc(C(=O)Nc4cccc(CC)c4)cc3)c3c(N)ncnc31)C2 (stereo not drawn) [Ex. 46, 4-(1-(2-acryloyl-2-azabicyclo[2.2.1]heptan-6-yl)-4-amino-1H-pyrazolo[3,4-d]pyrimidin-3-yl)-N-(3-ethylphenyl)benzamide]
21 | 22.7 nM | C#CC(=O)N1CC2CC1C(n1nc(-c3ccc(C(=O)Nc4cc(C(F)(F)F)ccn4)cc3)c3c(N)ncnc31)C2 (stereo not drawn) [Ex. 6, 4-(4-amino-1-(2-propioloyl-2-azabicyclo[2.2.1]heptan-6-yl)-1H-pyrazolo[3,4-d]pyrimidin-3-yl)-N-(4-(trifluoromethyl)pyridin-2-yl)benzamide]
22 | 1.1 nM | C=CC(=O)N1C[C@@H]2C[C@H]1[C@@H](n1nc(-c3ccc(C(=O)Nc4cc(F)ccn4)cc3F)c3c(N)ncnc31)C2 [Ex. 73, 4-(1-((1S,4R,6S)-2-acryloyl-2-azabicyclo[2.2.1]heptan-6-yl)-4-amino-1H-pyrazolo[3,4-d]pyrimidin-3-yl)-3-fluoro-N-(4-fluoropyridin-2-yl)benzamide]
23 | 8.2 nM | C=CC(=O)N1CC2CC1C(n1nc(-c3ccc(NC(=O)c4ccccn4)cc3)c3c(N)ncnc31)C2 (stereo not drawn) [Ex. 38, N-(4-(1-(2-acryloyl-2-azabicyclo[2.2.1]heptan-6-yl)-4-amino-1H-pyrazolo[3,4-d]pyrimidin-3-yl)phenyl)picolinamide]
24 | 2 nM | C#CC(=O)N1C[C@@H]2C[C@H]1C[C@H]2n1nc(-c2ccc(Oc3ccccc3)cc2)c2c(N)ncnc21 [Ex. 13, 1-((1S,4S,5R)-5-(4-amino-3-(4-phenoxyphenyl)-1H-pyrazolo[3,4-d]pyrimidin-1-yl)-2-azabicyclo[2.2.1]heptan-2-yl)prop-2-yn-1-one]
25 | 6.7 nM | Nc1ncnc2c1c(-c1ccc(Oc3ccccc3)cc1)nn2C1CC2CC1CN2C(=O)/C=C/CBr (stereo not drawn) [Ex. 65, (E)-1-(5-(4-amino-3-(4-phenoxyphenyl)-1H-pyrazolo[3,4-d]pyrimidin-1-yl)-2-azabicyclo[2.2.1]heptan-2-yl)-4-bromobut-2-en-1-one]
26 | 5.2 nM | C=CC(=O)N1C[C@@H]2C[C@H]1[C@@H](n1nc(-c3ccc(C(=O)Nc4ncccc4C(F)(F)F)cc3)c3c(N)ncnc31)C2 [Ex. 78, 4-(1-((1S,4R,6S)-2-acryloyl-2-azabicyclo[2.2.1]heptan-6-yl)-4-amino-1H-pyrazolo[3,4-d]pyrimidin-3-yl)-N-(3-(trifluoromethyl)pyridin-2-yl)benzamide]
27 | 5.9 nM | Nc1ncnc2c1c(-c1ccc(Oc3ccccc3)cc1)nn2C1CC2CC1N(C(=O)/C=C/CBr)C2 (stereo not drawn) [Ex. 44, (E)-1-(6-(4-amino-3-(4-phenoxyphenyl)-1H-pyrazolo[3,4-d]pyrimidin-1-yl)-2-azabicyclo[2.2.1]heptan-2-yl)-4-bromobut-2-en-1-one]
28 | 6.3 nM | C=CC(=O)N1CC2CC1C(n1nc(-c3ccc(C(=O)Nc4cccc(C(F)(F)F)n4)cc3)c3c(N)ncnc31)C2 (stereo not drawn) [Ex. 70, 4-(1-(2-acryloyl-2-azabicyclo[2.2.1]heptan-6-yl)-4-amino-1H-pyrazolo[3,4-d]pyrimidin-3-yl)-N-(6-(trifluoromethyl)pyridin-2-yl)benzamide]
29 | 5.8 nM | CN1CCN(C/C=C/C(=O)N2CC3CC2C(n2nc(-c4ccc(Oc5ccccc5)cc4)c4c(N)ncnc42)C3)CC1 (stereo not drawn) [Ex. 62, (E)-1-(6-(4-amino-3-(4-phenoxyphenyl)-1H-pyrazolo[3,4-d]pyrimidin-1-yl)-2-azabicyclo[2.2.1]heptan-2-yl)-4-(4-methylpiperazin-1-yl)but-2-en-1-one]
30 | 11.4 nM | CN(C)C/C=C/C(=O)N1CC2CC1C(n1nc(-c3ccc(Oc4ccccc4)cc3)c3c(N)ncnc31)C2 (stereo not drawn) [Ex. 45, (E)-1-(6-(4-amino-3-(4-phenoxyphenyl)-1H-pyrazolo[3,4-d]pyrimidin-1-yl)-2-azabicyclo[2.2.1]heptan-2-yl)-4-(dimethylamino)but-2-en-1-one]
